Tests used:
Format in all cases: in vivo
[1] = test system: Nilaparvata lugens (Stal) nymphs; assay: Joint toxicity of I-72 + buprofezin, Example 52, Table 52; conditions: A = compound I-72, B = buprofezin, potted-seedling spraying, 72 hours, read-out: LC50
Method: Test target: Nilaparvata lugens (Stal) nymphs, a sensitive strain reared indoors.
(§1) Preparation of the pesticide solution: according to different test requirements, the test samples were accurately weighed respectively with an electronic analytical balance. The technical pesticides were dissolved in acetone, and then diluted with 0.1% Tween 80 water into a series of pesticide solutions with a certain concentration gradient according to the experimental design dosage.
Experimental method: the activity of the mixture against the Nilaparvata lugens (Stal) nymphs was determined by adopting the potted-seedling spraying method. First, rice seedlings were planted in culture pots. Uniform spraying was performed with the pesticide solution in the order from low dosage to high dosage according to the experimental design, with 2 mL for each seedling. Then, Nilaparvata lugens nymphs of uniform size were transferred onto the rice seedlings, with 3 replicates for each treatment. In addition, a blank control was set up.
(§2) The treated test materials were placed in an observation room, and the temperature, humidity and illumination of the observation room could be adjusted as needed. The number of dead and live insects was investigated 72 hours later. […] Then, the co-toxicity coefficient of each ratio was calculated using the Sun Y-P method to evaluate the mixing effect, as in Example 1.

[2] = test system: adult Bemisia tabaci (Gennadius); assay: Joint toxicity of I-72 + pyraclostrobin, cotton seedling spraying, Example 83, Table 83; conditions: A = compound I-72, B = pyraclostrobin, cotton seedling spraying, 72 hours, read-out: LC50
Method: as §1
The corrected mortality rate was calculated using the Abbott's formula, and statistical analysis was performed with the DPS data processing software to obtain the toxicity regression equation and LC50 value of each single test pesticide and each mixture of different ratios.

[3] = test system: Thrips flavus Schrank nymphs; assay: Joint toxicity of I-72 + spirotetramat, Example 26, Table 26; conditions: A = compound I-72, B = spirotetramat, eggplant seedling spraying, 48 hours, read-out: LC50
Method: (§3) Test target: Thrips flavus Schrank nymphs.
as §1
(§4) Experimental method: first, eggplant seedlings with Thrips flavus Schrank were selected, and the base number was counted. Then, uniform spraying was performed with the pesticide solution in the order from low to high doses according to the experimental design, with 2 mL for each seedling and 3 replicates for each treatment. In addition, a blank control was set up.
as §2, with “48” for “72”, “effect (the same” for “effect,”, “1).” for “1.”

[4] = test system: 3-instar larvae of Ostrinia furnacnlis Guenee; assay: Joint toxicity of I-72 + flubendiamide, Example 61, Table 61; conditions: A = compound I-72, B = flubendiamide, corn stem dipping, 72 hours, read-out: LC50
Method: Test target: 3-instar larvae of Ostrinia furnacnlis Guenee.
as §1
(§5) Experimental method: first, tender corn stems were selected and dipped in the prepared pesticide solution for 10 s in the order from low dosage to high dosage according to the experimental design. After natural air-drying in the shade, they were placed in a 9-cm-diameter Petri dish with filter paper, and uniform and healthy test insects were introduced, with 10 insects for each treatment and 3 replicates for each treatment. In addition, a blank control was set up.
as §2, with “effect (the same” for “effect,”, “1).” for “1.”

[5] = test system: 2nd-instar larvae of Mythimna separata; assay: Joint toxicity of I-72 + hexaflumuron, Example 56, Table 56; conditions: foliar, A = compound I-72, B = hexaflumuron, corn leaf dipping, 72 hours, read-out: LC50
Method: Test target: 2nd-instar larvae of Mythimna separata.
as §1
as §5, with “first,” for “first, tender”, “leaves” for “stems”
as §2, with “effect (the same” for “effect,”, “1).” for “1.”

[6] = test system: Thrips flavus Schrank nymphs; assay: Joint toxicity of I-72 + tolfenpyrad, Example 62, Table 62; conditions: A = compound I72, B = tolfenpyrad, eggplant seedling spraying, 48 hours, read-out: LC50
Method: as §3, §1, §4
as §2, with “48” for “72”, “effect (the same” for “effect,”, “1).” for “1.”

[7] = test system: Unaspis yanonensis Kuwana nymphs; assay: Joint toxicity of I-72 + afidopyropen, Example 76, Table 76; conditions: Unaspis yanonensis, foliar; A = compound I-72, B = afidopyropen; citrus leaf dipping; 120 hours; read-out: LC50
Method: Test target: Unaspis yanonensis Kuwana nymphs.
as §1
Experimental method: the activity of the mixture against Unaspis yanonensis Kuwana nymphs on citrus was determined by adopting the dipping method. First, the collected citrus leaves with Unaspis yanonensis Kuwana nymphs were treated with the pesticide solution in the order from low dosage to high dosage according to the experimental design. After air-drying, the petioles were kept moist with degreased cotton, and then the leaves were placed in a Petri dish, with 3 replicates for each treatment. In addition, a blank control was set up.
as §2, with “120” for “72”, “effect (the same” for “effect,”, “1).” for “1.”

[8] = test system: 2nd-instar larvae of Plutella xylostella; assay: Joint toxicity of I-72 + spiropidion, Example 31, Table 31; conditions: Plutella xylostella, foliar; A = compound I-72, B = spiropidion; cabbage leaf dipping; 72 hours; read-out: LC50
Method: Test target: 2nd-instar larvae of Plutella xylostella.
as §1
as §5, with “cabbage leaves” for “tender corn stems”
as §2, with “effect (the same” for “effect,”, “1).” for “1.”

**Q.** Which results are given for `CN(C(=O)c1ccc2c(c1)OC(F)(F)O2)c1cccc(C(=O)Nc2c(Br)cc(C(F)(C(F)(F)F)C(F)(F)F)cc2OC(F)F)c1F` [Compound I-72]?
**A.** LC50 [1]: 253 mg/L; LC50 [2]: 4.02 mg/L; LC50 [3]: 2.04 mg/L; LC50 [4]: 0.804 mg/L; LC50 [5]: 0.0301 mg/L; LC50 [6]: 2.02 mg/L; LC50 [7]: 75.4 mg/L; LC50 [8]: 0.0876 mg/L

From US20260198495A1, “BINARY INSECTICIDE COMPOSITION AND USE THEREOF” (SHENYANG SINOCHEM AGROCHEMICALS R & D CO., LTD., priority 2022, published 2026)
